Laboratory results from patent publication US20100144733A1, “Compounds, compositions and methods comprising heteroaromatic derivatives” (Institute for OneWorld Health, priority 2008, published 2010).
Where two headings read alike, the source gives them in different places.

Legend:
CFTR = target: T1, CFTR (Homo sapiens, UniProt P13569); experiment: T84 assay (FLIPR membrane potential dye, forskolin/IBMX-stimulated CFTR channel activity); assay type: cell-based
T1 construct: endogenous in cells; host or cells: T84 human colonic cells (ECACC)
Method in brief: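 Fluorescence from a membrane potential dye in T84 monolayers (HBSS with 10 mM Hepes) is followed each second for 150 s. Cells are exposed to test compound during the 45 min dye loading, then challenged with forskolin (10 μM) and IBMX (100 μM) to open CFTR. Inhibitors suppress the depolarization-driven fluorescence increase.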

[1] = test system: cholera toxin (CTX) induced net fluid secretion in intestinal loops; experiment: animal or person; assay type: in vivo, mice (CD1 strain); details: 4 hours
CHO-CFTR cell line = target: T2, CHO-CFTR cell line (Homo sapiens, UniProt P13569); experiment: CHO-CFTR assay (FLIPR assay, same conditions as the T84 assay); assay type: cell-based; details: imidazole and triazole-containing compounds
T2 construct: expressed in transfected cells; host or cells: CHO (CHO-CFTR cell line)

[2] = imidazole and triazole-containing compounds (Tables 13, 14, 14′), read-out: IC50 (μM) (T84 assay)

T2 sequence (P13569 whole entry): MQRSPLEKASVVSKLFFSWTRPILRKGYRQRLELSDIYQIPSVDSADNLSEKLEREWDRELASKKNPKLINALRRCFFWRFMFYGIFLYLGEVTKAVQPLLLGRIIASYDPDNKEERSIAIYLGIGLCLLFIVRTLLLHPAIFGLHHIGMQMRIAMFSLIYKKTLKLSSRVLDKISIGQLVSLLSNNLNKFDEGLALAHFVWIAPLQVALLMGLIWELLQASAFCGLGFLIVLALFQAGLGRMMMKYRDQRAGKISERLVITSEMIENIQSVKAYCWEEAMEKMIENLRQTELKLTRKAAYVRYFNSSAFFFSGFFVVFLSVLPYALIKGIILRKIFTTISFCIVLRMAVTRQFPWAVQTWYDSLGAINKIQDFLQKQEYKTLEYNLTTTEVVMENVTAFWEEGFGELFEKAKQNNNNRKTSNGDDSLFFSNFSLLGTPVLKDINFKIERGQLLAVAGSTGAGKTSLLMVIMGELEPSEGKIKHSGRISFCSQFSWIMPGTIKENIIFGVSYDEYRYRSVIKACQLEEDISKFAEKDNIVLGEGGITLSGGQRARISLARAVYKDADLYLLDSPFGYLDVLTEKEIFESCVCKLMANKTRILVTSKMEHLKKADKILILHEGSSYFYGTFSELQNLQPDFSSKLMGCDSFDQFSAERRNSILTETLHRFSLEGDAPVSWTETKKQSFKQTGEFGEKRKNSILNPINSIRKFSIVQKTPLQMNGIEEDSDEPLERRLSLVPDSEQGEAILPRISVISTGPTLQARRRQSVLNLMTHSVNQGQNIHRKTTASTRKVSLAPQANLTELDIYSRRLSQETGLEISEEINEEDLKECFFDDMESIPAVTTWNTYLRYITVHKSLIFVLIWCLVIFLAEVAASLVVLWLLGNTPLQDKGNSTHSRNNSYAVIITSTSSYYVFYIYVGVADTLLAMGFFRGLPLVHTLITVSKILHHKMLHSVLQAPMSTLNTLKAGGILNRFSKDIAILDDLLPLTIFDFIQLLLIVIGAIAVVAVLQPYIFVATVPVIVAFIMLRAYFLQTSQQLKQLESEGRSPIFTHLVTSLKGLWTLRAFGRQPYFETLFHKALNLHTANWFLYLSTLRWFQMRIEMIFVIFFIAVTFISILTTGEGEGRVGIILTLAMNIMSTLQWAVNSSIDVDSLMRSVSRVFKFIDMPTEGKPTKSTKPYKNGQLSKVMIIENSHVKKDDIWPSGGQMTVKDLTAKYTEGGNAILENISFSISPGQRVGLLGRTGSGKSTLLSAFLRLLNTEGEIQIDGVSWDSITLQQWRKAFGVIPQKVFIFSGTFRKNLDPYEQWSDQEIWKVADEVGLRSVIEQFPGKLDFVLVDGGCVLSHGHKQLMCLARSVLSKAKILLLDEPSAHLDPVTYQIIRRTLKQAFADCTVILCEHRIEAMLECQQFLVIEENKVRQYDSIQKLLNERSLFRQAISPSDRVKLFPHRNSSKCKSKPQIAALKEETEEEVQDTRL
T1 sequence (P13569 whole entry): as above

| SMILES | IC50 (CFTR; [2]) [µM] | IC50 (CHO-CFTR cell line) [µM] | other results |
| --- | --- | --- | --- |
| CC(C)(C)C(=O)CN(Cc1cccc(C(F)(F)F)c1)C(=O)c1nc(-c2cc(Br)c(O)c(Br)c2)no1 [1a, 3-(3,5-dibromo-4-hydroxyphenyl)-N-(3,3-dimethyl-2-oxobutyl)-N-(3-(trifluoromethyl)benzyl)-1,2,4-oxadiazole-5-carboxamide] | – | – | IC50 (CFTR; oxadiazole-containing compounds (a series), average of at least 2 runs unless annotated n = 1, read-out: IC50): 0.98 µM; closed loop % inhibition @ 10 μg [1]: 69.4%; inhibition in vivo at 100 µg/loop ([1]; Mus musculus, read-out: closed loop % inhibition @ 100 μg): 87.1% |
| Oc1c(Br)cc(-c2cnc(OCc3ccc(Cl)cc3)nn2)cc1Br [20e, 2,6-dibromo-4-(3-(4-chlorobenzyloxy)-1,2,4-triazin-6-yl)phenol] | – | – | closed loop % inhibition @ 100 μg [1]: 87.6% |
| Oc1c(Br)cc(-c2cnc(COc3cccc(Cl)c3Cl)nn2)cc1Br [30e, 2,6-dibromo-4(3-((2,3-dichlorophenoxy)methyl)-1,2,4-triazin-6-yl)phenol] | – | – | closed loop % inhibition @ 100 μg [1]: 94.4% |
| Oc1c(Cl)cc(-c2cnc(C(O)(c3ccccc3)c3ccccc3)nn2)cc1Cl [36e, 2,6-dichloro-4-(3-(hydroxydiphenylmethyl)-1,2,4-triazin-6-yl)phenol] | – | – | closed loop % inhibition @ 10 μg [1]: 62.1%; closed loop % inhibition @ 100 μg [1]: 74.9% |
| Oc1c(Br)cc(-c2cnc(OCCc3ccccc3)nn2)cc1Br [96e, 2,6-dibromo-4-(3-phenethoxy-1,2,4-triazin-6-yl)phenol] | – | – | closed loop % inhibition @ 100 μg [1]: 78.6% |
| OCCN(Cc1ccccc1)c1ccc(-c2cc(Cl)c(O)c(Cl)c2)nn1 [98f, 4-(6-(benzyl(2-hydroxyethyl)amino)pyridazin-3-yl)-2,6-dichlorophenol] | – | – | closed loop % inhibition @ 100 μg [1]: 67.0% |
| C=CCN(Cc1ccc(Oc2ccccc2)cc1)C(=O)c1ncn(-c2cc(Cl)c(O)c(Cl)c2)n1 [100i, N-allyl-1-(3,5-dichloro-4-hydroxyphenyl)-N-(4-phenoxybenzyl)-1H-1,2,4-triazole-3-carboxamide] | 1.85 | 9.09 | – |
| C=CCN(Cc1ccc(Cl)c(Cl)c1)C(=O)c1ncn(-c2cc(Cl)c(O)c(Cl)c2)n1 [102i, N-allyl-1-(3,5-dichloro-4-hydroxyphenyl)-N-(3,4-dichlorobenzyl)-1H-1,2,4-triazole-3-carboxamide] | 1.85 | 2.69 | – |
| C=CCN(Cc1cccc(OC(F)(F)F)c1)C(=O)c1ncn(-c2cc(Cl)c(O)c(Cl)c2)n1 [103i, N-allyl-1-(3,5-dichloro-4-hydroxyphenyl)-N-(3-(trifluoromethoxy)benzyl)-1H-1,2,4-triazole-3-carboxamide] | 2.53 | 32.9 | – |
| C=CCN(Cc1cccc(C(F)(F)F)c1)C(=O)c1ncn(-c2cc(Cl)c(O)c(Cl)c2)n1 [104i, N-allyl-1-(3,5-dichloro-4-hydroxyphenyl)-N-(3-(trifluoromethyl)benzyl)-1H-1,2,4-triazole-3-carboxamide] | 5.83 | 41.9 | – |
| CC(C)(C)CCN(Cc1ccc(Oc2ccccc2)cc1)C(=O)c1ncn(-c2cc(Cl)c(O)c(Cl)c2)n1 [105i, 1-(3,5-dichloro-4-hydroxyphenyl)-N-(3,3-dimethylbutyl)-N-(4-phenoxybenzyl)-1H-1,2,4-triazole-3-carboxamide] | 3.64 | 11.3 | – |
| CC(C)(C)CCN(Cc1ccc(C(C)(C)C)cc1)C(=O)c1ncn(-c2cc(Cl)c(O)c(Cl)c2)n1 [106i, N-(4-tert-butylbenzyl)-1-(3,5-dichloro-4-hydroxyphenyl)-N-(3,3-dimethylbutyl)-1H-1,2,4-triazole-3-carboxamide] | 1.8 | 13.1 | – |
| CC(C)(C)CCN(Cc1ccc(Cl)c(Cl)c1)C(=O)c1ncn(-c2cc(Cl)c(O)c(Cl)c2)n1 [107i, 1-(3,5-dichloro-4-hydroxyphenyl)-N-(3,4-dichlorobenzyl)-N-(3,3-dimethylbutyl)-1H-1,2,4-triazole-3-carboxamide] | 1.73 | 26.9 | – |
| CCN(Cc1ccc(Cl)c(Cl)c1)C(=O)c1ncn(-c2cc(Cl)c(O)c(Cl)c2)n1 [108i, 1-(3,5-dichloro-4-hydroxyphenyl)-N-(3,4-dichlorobenzyl)-N-ethyl-1H-1,2,4-triazole-3-carboxamide] | 2.99 | 4.08 | – |
| O=C(c1ncn(-c2cc(Cl)c(O)c(Cl)c2)n1)N(Cc1cccnc1)Cc1ccc(Cl)c(Cl)c1 [109i, 1-(3,5-dichloro-4-hydroxyphenyl)-N-(3,4-dichlorobenzyl)-N-(pyridin-3-ylmethyl)-1H-1,2,4-triazole-3-carboxamide] | 3.06 | 10.2 | – |
| O=C(c1ncn(-c2cc(Cl)c(O)c(Cl)c2)n1)N(Cc1cccnc1)Cc1cccc(OC(F)(F)F)c1 [110i, 1-(3,5-dichloro-4-hydroxyphenyl)-N-(pyridin-3-ylmethyl)-N-(3-(trifluoromethoxy)benzyl)-1H-1,2,4-triazole-3-carboxamide] | 4.48 | 7.8 | – |

| SMILES | IC50 (CFTR; [2]) [µM] | IC50 (CHO-CFTR cell line) [µM] | other results |
| --- | --- | --- | --- |
| COCCOCCOCCOCCN(Cc1ccc(Oc2ccccc2)cc1)C(=O)c1ncn(-c2cc(Cl)c(O)c(Cl)c2)n1 [112i, 1-(3,5-dichloro-4-hydroxyphenyl)-N-(4-phenoxybenzyl)-N-(2,5,8,11-tetraoxatridecan-13-yl)-1H-1,2,4-triazole-3-carboxamide] | 12.5 | 26.1 | – |
| COCCOCCOCCN(Cc1ccc(Cl)c(Cl)c1)C(=O)c1ncn(-c2cc(Cl)c(O)c(Cl)c2)n1 [114i, 1-(3,5-dichloro-4-hydroxyphenyl)-N-(3,4-dichlorobenzyl)-N-(2-(2-(2-methoxyethoxy)ethoxy)ethyl)-1H-1,2,4-triazole-3-carboxamide] | 6.63 | 22.7 | – |
| CCN(Cc1ccccc1)c1ccc(-c2cc(Cl)c(O)c(Cl)c2)nn1 [115f, 4-(6-(benzyl(ethyl)amino)pyridazin-3-yl)-2,6-dichlorophenol] | – | – | closed loop % inhibition @ 100 μg [1]: 79.4% |
| COCCOCCOCCN(Cc1ccc(Oc2ccccc2)cc1)C(=O)c1ncn(-c2cc(Cl)c(O)c(Cl)c2)n1 [119i, 1-(3,5-dichloro-4-hydroxyphenyl)-N-(2-(2-(2-methoxyethoxy)ethoxy)ethyl)-N-(4-phenoxybenzyl)-1H-1,2,4-triazole-3-carboxamide] | 5.11 | 11.5 | – |
| CON(Cc1cccc(C(F)(F)F)c1)C(=O)c1ncn(-c2cc(Cl)c(O)c(Cl)c2)n1 [124i, 1-(3,5-dichloro-4-hydroxyphenyl)-N-methoxy-N-(3-(trifluoromethyl)benzyl)-1H-1,2,4-triazole-3-carboxamide] | 8.22 | 6.03 | – |
| CON(Cc1cccc(OC(F)(F)F)c1)C(=O)c1ncn(-c2cc(Cl)c(O)c(Cl)c2)n1 [125i, 1-(3,5-dichloro-4-hydroxyphenyl)-N-methoxy-N-(3-(trifluoromethoxy)benzyl)-1H-1,2,4-triazole-3-carboxamide] | 3.44 | 9.67 | – |
| CON(Cc1ccc(Cl)c(Cl)c1)C(=O)c1ncn(-c2cc(Cl)c(O)c(Cl)c2)n1 [126i, 1-(3,5-dichloro-4-hydroxyphenyl)-N-(3,4-dichlorobenzyl)-N-methoxy-1H-1,2,4-triazole-3-carboxamide] | 2.43 | 2.46 | – |
| Oc1c(Cl)cc(-c2cnc(OCc3ccccc3F)nn2)cc1Cl [127e, 2,6-dichloro-4-(3-(2-fluorobenzyloxy)-1,2,4-triazin-6-yl)phenol] | – | – | closed loop % inhibition @ 10 μg [1]: 62.7%; closed loop % inhibition @ 100 μg [1]: 70.2% |
| CON(Cc1ccc(C(C)(C)C)cc1)C(=O)c1ncn(-c2cc(Cl)c(O)c(Cl)c2)n1 [127i, N-(4-tert-butylbenzyl)-1-(3,5-dichloro-4-hydroxyphenyl)-N-methoxy-1H-1,2,4-triazole-3-carboxamide] | 1.49 | 32.9 | – |
| CON(Cc1ccc(Oc2ccccc2)cc1)C(=O)c1ncn(-c2cc(Cl)c(O)c(Cl)c2)n1 [129i, 1-(3,5-dichloro-4-hydroxyphenyl)-N-methoxy-N-(4-phenoxybenzyl)-1H-1,2,4-triazole-3-carboxamide] | 2.61 | 22.5 | – |
| CCON(Cc1ccc(Oc2ccccc2)cc1)C(=O)c1ncn(-c2cc(Cl)c(O)c(Cl)c2)n1 [130i, 1-(3,5-dichloro-4-hydroxyphenyl)-N-ethoxy-N-(4-phenoxybenzyl)-1H-1,2,4-triazole-3-carboxamide] | 2.84 | 4.09 | – |
| O=C(c1ncn(-c2cc(Cl)c(O)c(Cl)c2)n1)N(O)Cc1ccc(Oc2ccccc2)cc1 [131i, 1-(3,5-dichloro-4-hydroxyphenyl)-N-hydroxy-N-(4-phenoxybenzyl)-1H-1,2,4-triazole-3-carboxamide] | 4.87 | 7.45 | – |
| CC(C)(C)C(=O)C(Cc1cccc(C(F)(F)F)c1)NC(=O)c1ncn(-c2cc(Cl)c(O)c(Cl)c2)n1 (stereo not shown) [132i, 1-(3,5-dichloro-4-hydroxyphenyl)-N-(4,4-dimethyl-3-oxo-1-(3-(trifluoromethyl)phenyl)pentan-2-yl)-1H-1,2,4-triazole-3-carboxamide] | 3.87 | 26.5 | – |
| CC(C)(C)C(=O)C(Cc1cccc(OC(F)(F)F)c1)NC(=O)c1ncn(-c2cc(Cl)c(O)c(Cl)c2)n1 (stereo not shown) [133i, 1-(3,5-dichloro-4-hydroxyphenyl)-N-(4,4-dimethyl-3-oxo-1-(3-(trifluoromethoxy)phenyl)pentan-2-yl)-1H-1,2,4-triazole-3-carboxamide] | 1.23 | 21 | – |
| CC(C)c1ccc(CC(NC(=O)c2ncn(-c3cc(Cl)c(O)c(Cl)c3)n2)C(=O)C(C)(C)C)cc1 (stereo not shown) [134i, 1-(3,5-dichloro-4-hydroxyphenyl)-N-(1-(4-isopropylphenyl)-4,4-dimethyl-3-oxopentan-2-yl)-1H-1,2,4-triazole-3-carboxamide] | 3.09 | 8.6 | – |
